Consider 4 compounds from paper PMC12596500, “Affinity-selected peptide ligands specifically bind i-motif DNA and modulate c-Myc gene expression” (Nucleic Acids Research, 2025).

Test [1] concerns the target short c-Myc iM-forming sequence. The conditions noted are these: cited from earlier work. As to the method: To support the experiments on the stabilizing properties of the peptides, we also performed direct binding measurements of Pep-VSE and Pep-PTN using UV titrations. Binding curves are provided in Supplementary Fig. S11, and Kds are in Table 2. These experiments reveal tight binding of both PTN (0.93 ± 0.08 µM) and VSE (0.43 ± 0.03 µM) compared to other DNA structures. Although binding was detected for both peptides against c-MycG52, the G4-forming sequence in the complementary strand, there was no plateau at the concentrations examined. So, we have estimated a lower limit of 50 µM as the potent ...

Test [2] has as its system c-MycC52 iM. Put plainly: Fluorescent indicator displacement (FID) assay with Thiazole Orange. The format is binding. The settings on record: 1 µM c-MycC52, 2 µM TO, 10 mM sodium cacodylate pH 6.6, peptides 25-200 µM, n = 3. The protocol:
Fluorescent indicator displacement (FID) experiments used in this publication are based on the first FID assay developed for iM DNA [35]. The FID experiments were performed on a BMG CLARIOstar plate reader using 96-well, solid black flat-bottom plates. Thiazole Orange (TO) was the indicator, and the stock solution was prepared at 10 mM in DMSO. The TO stock was diluted into the appropriate buffer to 2 µM. Each well received 9 µl of the 2 µM TO solution, was excited at 430 nm, and fluorescence emission at 450 nm was measured; this was normalized to 0% to account for background fluorescence. One microlitre of […] DNA was added to each well and shaken in the plate reader for 30 s using double orbital shaking at 700 rpm and left for 10 min to equilibrate. Following equilibration, fluorescence emission was measured and normalized to 100% representing maximum fluorescence. Peptides were titrated starting at 25 µM, with 0.9 µl additions into each well in triplicate, until a final concentration of 200 µM was reached, and fluorescence emission was measured after each addition. Fluorescence emission for each well was normalized between 0% and 100%, which was taken away from 100 to give the percentage of displacement. The data were analyzed in Origin data analysis software and fitted with a hyperbolic dose–response curve from which the DC50 value was interpolated.
The relative binding of the five peptide ligands to the folded c-MycC52 iM was assessed via a FID assay using TO (Fig. 1). These experiments were performed in 10 mM sodium cacodylate at pH 6.6, the transitional pH of the c-Myc iM-forming sequence. As iM-formation is reduced at higher pH and higher ionic strength, additional stabilizing cations were avoided to allow the highest proportion of iM formation at the highest pH, to represent as close to physiological pH conditions as possible.
Figure 1. Concentration-dependent interaction of peptides with c-MycC52 iM determined via FID assay. The assay was performed with 1 µM c-MycC52 in 10 mM sodium cacodylate, pH 6.6, in the presence of 2 µM TO. Peptide ligands were added in increments of 25 µM up to a final concentration of 200 µM. Data are presented as mean ± SD (n = 3) and fitted using a Hill-Slope dose–response curve.

The subject of test [3] is dsDNA (DS). Put plainly: CD melting of double-stranded DNA. The format is binding. The settings on record: 10 µM DS, 10 mM NaCaco pH 6.6, 10 molar eqv. peptide vs buffer; n=2. The protocol:
Circular Dichroism (CD) melting experiments were performed in a Jasco J-1500 spectropolarimeter with 10 µM DNA samples in 10 mM sodium cacodylate buffer at pH 6.6 using a 1 mm path length quartz cuvette. […] The samples were kept at 5°C for 5 min before starting the melt, with a temperature increase of 1°C/min, a 0.5°C data interval, and a 60-s holding time at each target temperature. Four scans were accumulated data pitch of 0.5 nm, a scanning speed of 200 nm/min, 1 s response time, 2 nm bandwidth, and 200 mdeg sensitivity. Furthermore, two CD melting experiment repeats were performed recording C-rich c-Myc at 288 and 320 nm, G-rich c-Myc at 264 and 320 nm, and dsDNA at 253 and 320 nm with the settings as described for full spectrum measurements. Data were zero corrected to 320 nm and baseline drift. The melting temperature (TM) was concluded using the Boltzmann or biphasic fitting curve on the folded fraction data using GraphPad Prism version 10.1.2. Data were processed as mean ± SEM (n = 4) and one-way ANOVA followed by Bonferroni post-hoc test to determine significant changes between peptides and controls.

Usually Kd stands for the concentration at which binding is half-saturated. In the case of `NC[C@H]1O[C@H](O[C@H]2[C@H](O)[C@@H](O[C@H]3O[C@H](CO)[C@@H](O)[C@H](N)[C@H]3O)[C@H](N)C[C@@H]2N)[C@H](N)C[C@@H]1O` [tobramycin], the Kd in test [1] is 13 µM.
Consider “EIEY TDHMK ELG [Pep-EIE, linear 12-mer peptide selected by phage display against c-MycC52; N-terminal acetylation, C-terminal amidation]”, for which the “relative binding affinity ranking (TO displacement)” value (from here on “relative binding affinity ranking”) in test [2] is listed as “SLC > PTN > VSE > EIE > RVS”.
Regarding “RVS TDHMK GRGG [Pep-RVS, linear 12-mer peptide selected by phage display against c-MycC52; N-terminal acetylation, C-terminal amidation]”, in test [2], the “relative binding affinity ranking” value is listed as “SLC > PTN > VSE > EIE > RVS”.
In the case of “SLCDIIRIEKVR [Pep-SLC, linear 12-mer peptide selected by phage display against c-MycC52; N-terminal acetylation, C-terminal amidation]”, in test [2], the “relative binding affinity ranking” value is recorded as “SLC > PTN > VSE > EIE > RVS”. The “destabilization of dsDNA (decrease in TM)” value in test [3] stood at 5 °C.
